For 29 compounds, inhibition, IC50 and CI results are on record in ChEMBL document CHEMBL4842385, “Indirubin Derivatives as Dual Inhibitors Targeting Cyclin-Dependent Kinase and Histone Deacetylase for Treating Cancer” (J Med Chem, 2021).

Experiment [1] deals with Histone deacetylase (Homo sapiens) (UniProt Q13547+O15379+Q9UBN7+Q92769+Q9UQL6+Q8WUI4+Q9BY41+Q96DB2+P56524+Q9UKV0+Q969S8). Particulars: HeLa, Nucleus, dose 1000.0 nM, time 1.0 hrs.
Experiment [2] concerns the target CDK6/cyclin D3 (Homo sapiens) (UniProt P30281+Q00534). Particulars: dose 100.0 nM, time 10.0 min.
Experiment [3] deals with CDK4/Cyclin D3 (Homo sapiens) (UniProt P11802+P30281). As to conditions: dose 100.0 nM, time 10.0 min.
Experiment [4] has as its target CDK2/Cyclin A2 (Homo sapiens) (UniProt P24941+P20248). As to conditions: dose 100.0 nM, time 10.0 min.
The test system of experiment [5] is A549. The experiment is described as follows: Antiproliferative activity against human A549 cells assessed as cell growth inhibition measured after 48 hrs by CCK8 assay. In kind it is functional, cell-based. Particulars: A549, 48 h. Background: Formazan colour is commonly taken as a measure of viable cells.
Experiment [6] deals with HepG2. The experiment is described as follows: Antiproliferative activity against human HepG2 cells assessed as cell growth inhibition measured after 48 hrs by CCK8 assay. In kind it is functional, cell-based. Particulars: HepG2, 48 h.
Experiment [7] concerns A549. The experiment can be described thus: Synergistic antiproliferative activity against human A549 cells assessed as combination index in presence of 2.5 to 46 uM tubastatin-A by Chou-Talalay method. As to conditions: dose 2.5-46 µM. In kind it is functional.
Experiment [8] deals with A549. The experiment can be described thus: Synergistic antiproliferative activity against human A549 cells assessed as combination index in presence of vorinostat by Chou-Talalay method. In kind it is functional.
Experiment [9] has as its system MCF7. The experiment is described as follows: Antiproliferative activity against human MCF7 cells assessed as cell growth inhibition measured after 48 hrs by CCK8 assay. In kind it is functional, cell-based. Particulars: MCF7, 48 h.
In experiment [10] the test system is K562. The experiment is described as follows: Antiproliferative activity against human K562 cells assessed as cell growth inhibition measured after 48 hrs by CCK8 assay. In kind it is functional, cell-based. As to conditions: K562, 48 h.
The subject of experiment [11] is HeLa. The experiment can be described thus: Antiproliferative activity against human HeLa cells assessed as cell growth inhibition measured after 48 hrs by CCK8 assay. In kind it is functional, cell-based.

Molecules are shown by their SMILES. Where only a bound is given, the exact number is not on record here.

One may read the inhibition as the change of the read-out against control, counted positive when it falls. Regarding `O=C(CO/N=C1/C(=C2/C(=O)Nc3ccccc32)Nc2ccccc21)NO`, the inhibition in experiment [1] was 19.6%; in experiment [2], 46.8%; in experiment [3], 26.2%; in experiment [4], 46.7%.
With `O=C(CCCO/N=C1/C(=C2/C(=O)Nc3ccc(Br)cc32)Nc2ccccc21)NO`, the results for the inhibition in [1], in experiment [2] and in [3] were 9.1%, -0.8% and -0.2%, respectively.
`Cc1ccc2c(c1)C(=N\OCCCCCCC(=O)NO)/C(=C1/C(=O)Nc3ccccc31)N2`: the inhibition in [1] is 97.8%; in [2] it was 2.7%; in experiment [3], -1.7%; in [4], 11.6%.
On to `O=C(CCCCCCO/N=C1/C(=C2/C(=O)Nc3ccc([N+](=O)[O-])cc32)Nc2ccccc21)NO`, for which the inhibition in experiment [1] worked out at 77.2%; in [2], 1%; in experiment [3], 1.1%; in [4], 33.4%.
In the case of `O=C(CCCCCCO/N=C1/C(=C2/C(=O)Nc3ccc(F)cc32)Nc2ccccc21)NO`, the inhibition was determined as 82.7% in [1], 4.9% in experiment [2], 17.2% in [3] and 45.4% in [4].
Taken in the same sequence, the figures for `O=C(CCCCCCO/N=C1/C(=C2/C(=O)Nc3c2cccc3C(F)(F)F)Nc2ccccc21)NO` were 8%, 4%, -5.6% and 3%.
As to `O=C(CCCCCCO/N=C1/C(=C2/C(=O)Nc3ccc(Cl)cc32)Nc2ccccc21)NO`, the inhibition came out at 82.6% in [1], 63% in [2], 18% in experiment [3] and 54.9% in experiment [4].
As to `COc1ccc2c(c1)C(=N\OCCCCCCC(=O)NO)/C(=C1/C(=O)Nc3ccccc31)N2`, the results for the inhibition in experiment [1] and in experiment [4] were 93.5% and 5.9%, respectively.
Turning to `Cc1ccc2c(c1)NC(=C1\C(=O)Nc3ccccc31)/C2=N/OCCCCCCC(=O)NO`, the inhibition was determined as 94.4% in experiment [1] and 4% in [4].
`Cc1cccc2c1NC(=O)/C2=C1\Nc2ccccc2\C1=N/OCCCCCCC(=O)NO`: the inhibition was found to be 91.1% in experiment [1], 4.6% in experiment [2], 2% in experiment [3] and 2.1% in experiment [4].
Taken in the same sequence, the figures for `O=C(CCCCCCO/N=C1/C(=C2/C(=O)Nc3ccc(I)cc32)Nc2ccccc21)NO` were 67.3%, 0.8%, 9.7% and 55.7%.
For `O=C(CCCCCCCO/N=C1/C(=C2/C(=O)Nc3ccccc32)Nc2ccccc21)NO` the same measures were 90.6%, -2.7%, -4.5% and 6.6%.
Turning to `COc1ccc2c(c1)NC(=O)/C2=C1\Nc2ccccc2\C1=N/OCCCCCCC(=O)NO`, the inhibition is 44.7% in [1], 8.3% in experiment [2], -2.5% in [3] and 4.5% in experiment [4].
`O=C(CCCCCCO/N=C1/C(=C2/C(=O)Nc3ccccc32)Nc2ccccc21)NO`: the inhibition turned out to be 98.1% in experiment [1], 6.5% in experiment [2], 6.1% in experiment [3] and 14.6% in experiment [4].
Broadly, the IC50 is the concentration needed to halve the response being measured. Turning to `CC(=O)c1c(C)c2cnc(Nc3ccc(N4CCNCC4)cn3)nc2n(C2CCCC2)c1=O` [PALBOCICLIB], the concentration for half-maximal inhibition (IC50) in [5] was 9.4 µM; in [6], over 10 µM; in experiment [9] it was over 10 µM; in experiment [10], over 10 µM; in experiment [11], over 10 µM. Also, the CI in [7] and in experiment [8] was 0.9 each time.
With `O=C(CCCCCCO/N=C1/C(=C2/C(=O)Nc3ccccc32)Nc2ccc(Br)cc21)NO`, the results for the inhibition in [1] and in experiment [4] were 79.5% and 0.5%, respectively.
As for `O=C(CCCCCCC(=O)Nc1ccccc1)NO`, the inhibition was 0.8% in experiment [2], -5.8% in experiment [3] and 2.9% in experiment [4].
On to `O=C(CO/N=C1/C(=C2/C(=O)Nc3ccc(Br)cc32)Nc2ccccc21)NO`, for which the inhibition came out at 17.5% in experiment [1], 44.4% in [2] and 54.5% in experiment [3].
As for `O=C(CCCCCO/N=C1/C(=C2/C(=O)Nc3ccccc32)Nc2ccccc21)NO`, the inhibition in [1] is 89.9%; in experiment [2], 28.8%; in experiment [3], 10.2%; in experiment [4], 30%.
For `O=C(CCCCO/N=C1/C(=C2/C(=O)Nc3ccccc32)Nc2ccccc21)NO` the same measures were 58.3%, 45.4%, 21.1% and 47.4%.
For the compound `O=C1Nc2ccccc2/C1=C1/Nc2ccccc2/C1=N\O`, the inhibition in experiment [1] is 15%; in experiment [2], 46.6%; in [3] it was -1.5%; in [4] it was 33.9%.
Turning to `O=C(CCCCCCO/N=C1/C(=C2/C(=O)Nc3ccccc32)Nc2ccc([N+](=O)[O-])cc21)NO`, the inhibition in experiment [1] was determined as 76.6%; in experiment [4], 6.2%.
With `O=C(CCCCO/N=C1/C(=C2/C(=O)Nc3ccc(Br)cc32)Nc2ccccc21)NO`, the inhibition in [1] is 60.2%; in experiment [2], 8%; in experiment [3], 17.9%.
As for `O=C(CCCCCCO/N=C1/C(=C2/C(=O)Nc3ccc(Br)cc32)Nc2ccccc21)NO`, the inhibition is 87.5% in experiment [1], -2.3% in [2], -4.3% in experiment [3] and 5% in experiment [4].
In the case of `COc1ccc2c(c1)/C(=C1/Nc3ccccc3/C1=N\OCCCCCCC(=O)NO)C(=O)N2`, the inhibition was 88.6% in [1], 3.5% in [2], 13% in experiment [3] and 54% in experiment [4].
Turning to `O=C(CCCCCCO/N=C1/C(=C2/C(=O)Nc3ccccc32)Nc2ccc(Cl)cc21)NO`, the values for the inhibition in experiment [1] and in experiment [4] were 90.8% and -1.4%, respectively.
As for `Cc1ccc2c(c1)/C(=C1/Nc3ccccc3/C1=N\OCCCCCCC(=O)NO)C(=O)N2`, the inhibition in [1] is 89.9%; in experiment [2], -2.2%; in experiment [3] it was 1.3%; in experiment [4], 18.6%.
Take `O=C(CCCCCO/N=C1/C(=C2/C(=O)Nc3ccc(Br)cc32)Nc2ccccc21)NO`: the inhibition in experiment [1] is 21.4%; in experiment [2], -0.7%; in experiment [3], 3.5%.
In the case of `O=C1Nc2ccccc2/C1=C1/Nc2ccccc2C1=O` [INDIRUBIN], the IC50 in experiment [5], in experiment [6], in experiment [9], in [10] and in experiment [11] was over 10 µM in each case. Also, the inhibition in experiment [1] is 17.2%; in experiment [2], 25.1%; in experiment [3], 1%; in experiment [4], 8.5%.
